Experimental data: patent publication EP1235833B1 (GLAXO GROUP LIMITED, priority 1999, dated 2001)

Test: Acid stability: acid-mediated hydrolytic decomposition, simulated stomach conditions, HPLC
Format: physicochemical
Details: for Compound left (%): 0.3 mg/mL in dilute hydrochloric acid at pH 1, 25°C
Experimental: Compounds were tested for their stability towards acid-mediated hydrolytic decomposition employing a test designed to simulate stomach conditions. Each compound was incubated at an initial concentration of 0.3 mg/mL in dilute hydrochloric acid at pH 1 for 24 hours at 25°C. HPLC was run immediately for t=0 and at intervals up to approximately 24 hours. The results for compounds of Example 2, part b, Example 9, and for comparative phosphoramidates of 2',3'-dideoxy-adenosine (Compound 1093) and 2',3'-didehydro-2',3'-dideoxy-adenosine (Compound 1001), described in W096/29336A, are given in the table below.

COC(=O)C(C)(C)NP(=O)(OC[C@@H]1C=C[C@H](n2cnc3c(NCC4CC4)nc(N)nc32)C1)Oc1ccccc1 (relative stereo) [Example 9]
Compound left (%) (Time 0 hr): 100% | Compound left (%) (Time 13 hr): 96% | Compound left (%) (Time 24 hr): 94% | Acid stability in words (after 24 hours, dilute hydrochloric acid at pH 1, 25°C): remained intact
